Columns and labels:
[1] = In vitro phase I metabolism with mouse hepatic microsomes and NADPH; assay type: in vitro ADME; conditions: PZ-DHA 1.1 µM, 100 mM NADPH, 1 h, 37 °C
Procedure: Figure 2 PZ-DHA undergoes phase I metabolism in the presence of freshly prepared mouse liver microsomes. PZ-DHA (1.1 µM) was incubated with 100 mM NADPH in the presence of mouse liver microsome for 1 h at 37 °C. Metabolites from PZ-DHA (A) hydrolysis, (B) and (C) hydroxylation, and (D) epoxidation were identified.
Mouse hepatic microsomes were freshly isolated from the livers of male C57BL/6 mice, and the entire extraction procedure was carried out at 4 °C. Mouse livers were minced and homogenized in KCl/sucrose phosphate buffer (0.154 M KCl, 0.25 M sucrose in 50 mM potassium phosphate buffer (K2HPO4/KH2PO4) (PPB), pH 7.5). Cell/tissue debris was separated out by centrifuging homogenized livers at 12,000×g for 22 min at 4 °C. The supernatant was collected and centrifuged at 100,000×g for 70 min at 4 °C. The pellet was gently rinsed using 50 mM PPB and resuspended in glycerol/phosphate buffer (20% glycerol (v/v), 80% 0.1 M PPB pH 7.5). The protein concentration was determined using a Bradford assay (R^2 = 1.00), and microsomes were stored at − 80 °C.
Potential in vitro phase I and phase II metabolites of PZ-DHA were detected by incubating PZ-DHA in the presence of freshly-prepared mouse hepatic microsome preparations. Phase I metabolites were determined by incubating 1.1 µM PZ-DHA with 100 mM NADPH in the presence of mouse hepatic microsomes for 1 h at 37 °C. Phase II methylation, glucuronidation, and sulphation of PZ-DHA was determined by incubating 1.1 µM PZ-DHA with 1 mM SAM, 2 mM UDPGA, and 0.5 mM PAPS, respectively, in the presence of freshly prepared mouse hepatic microsome for 1 h at 37 °C (Supplementary information Tables S1–S4). To assess the efficiency of the metabolic process, controls (no PZ-DHA control, no mouse hepatic microsome control and no co-factor control) were incubated in parallel to the test. Reactions were terminated by adding a mixture of 4 mL ice-cold acetonitrile:acetone (80:20) containing 0.05 mg/mL quercetin as the internal standard. Proteins were precipitated by incubating the reaction mixture at 4 °C overnight and separated by centrifuging at 14,000 × g for 15 min at 4 °C. Supernatants were concentrated under nitrogen flush, filtered and PZ-DHA and/or PZ-DHA metabolites were identified using a UPLC-ESI–MS/MS system (Waters Limited, Mississauga, ON, Canada).
(§1) PZ-DHA and/or PZ-DHA metabolites in malignant/non-malignant epithelial cell lysates, in vitro microsome enzyme reaction mixtures, and mouse serum aliquots were determined using UPLC-ESI–MS/MS instrument (Waters Limited, Mississauga, ON, Canada). All mass spectroscopic analyses were performed using mass scan (full-scan, identification of unknowns) and single ion monitoring (SIM; quantification of PZ, DHA, PZ-DHA, and quercetin) modes of a Waters H-class UPLC separations module coupled with a Micromass Quattro micro API MS/MS system and MassLynx V4.0 control software. An Allure biphenyl column (100 mm × 2.1 mm, 1.8 μm, Restek Pure Chromatography, Bellefonte, PA, USA) and a flow rate of 0.3 mL/min were employed. ESI- mode with a capillary voltage of 3000 V and a nebulizer gas (N2) temperature of 375 °C were used. A volume of 2 µL sample was injected.

[2] = tested on: mammary carcinoma cells and mammary epithelial cells; assay: Cellular uptake assay, all cell lines together; assay type: cell-based, human and mouse; conditions: all cell lines, 20 μM, 72 h
Procedure: Figure 1 Conjugation of PZ with DHA increases the cellular uptake and stability of PZ and DHA. The cells were treated with 20 μM of PZ, DHA or PZ-DHA and cultured for 72 h at 37 °C. Cells were harvested and washed thoroughly using cold PBS. Cells were lysed in cold acetone containing 0.05 mg/mL quercetin, and cell lysates were collected by centrifugation and analyzed by using UPLC-ESI-MS/MS. (A) mean % cellular uptake of PZ, DHA and PZ-DHA. (B) fold increase in intracellular PZ and DHA when conjugated. ANOVA multiple means statistical comparison method was performed and differences among means were compared using Tukey’s test; *p < 0.05. (MDA-MB-231 p = 0.008; MDA-MB-468 p = 0.01; 4T1 p = 0.02; MCF-7 p = 0.01; MCF-10A p = 0.0005).
Cells were seeded at a density of 3 × 10^5 cells (MDA-MB-231, MDA-MB-468, MCF-7, and MCF-10A) or 1 × 10^5 cells (4T1) /T-75 flask. The cells were cultured overnight to promote cell adhesion. Adherent cells were treated with a sub-cytotoxic concentration (20 μM) of PZ, DHA or PZ-DHA and cultured for 72 h at 37 °C. The supernatant was carefully removed, and cell monolayers were washed with cold PBS. Cells were harvested using TrypLE Express and washed thoroughly with cold PBS. The cell pellet was resuspended in 3 mL of cold acetone containing 0.05 mg/mL quercetin as the internal standard, and incubated overnight at 4 °C. Cell lysates were collected by centrifugation at 14,000×g for 15 min at 4 °C and samples were concentrated by evaporating acetone under a stream of nitrogen gas. Dry pellets were reconstituted in methanol and filtered. The sample was analyzed using a UPLC/ESI/MS system. The percentage cell uptake of the total dose was quantified using standard curves of PZ (R^2 = 0.99), DHA (R^2 = 0.98) or PZ-DHA (R^2 = 0.99) made in methanol.
as §1

[3] = Serum pharmacokinetics after intraperitoneal injection; assay type: in vivo, Balb/c female mice; conditions: PZ-DHA 100 mg/kg intraperitoneal, serum
Procedure: Figure 4 Intraperitoneal administration of PZ-DHA results in absorption into the systemic circulation of Balb/c female mice. PZ-DHA (100 mg/kg) was administered by intraperitoneal injection to Balb/c female mice. Blood collection was performed and serum was separated. PZ-DHA was identified and quantified using a calibration curve (R^2 = 0.99) generated using a standard series of PZ-DHA concentrations made in mouse serum. PZ-DHA concentration was plotted against time. The elimination rate of PZ-DHA was determined using a semi-log curve of PZ-DHA concentration vs. time curve.
(§2) Pharmacokinetic parameters and in vivo generation of PZ-DHA metabolites were studied using Balb/c female mice. Mice were randomly divided into six groups (n = 4/group) and PZ-DHA (100 mg/kg) was administered by intraperitoneal injection. For each mouse, a single blood collection was performed by cardiac puncture at one of six different time points (t = 15, 30, 60, 90, 120, and 240 min). At the end of blood collection, mice were euthanized by cervical dislocation and organs (liver, lungs, kidneys, spleen, and brain) were harvested. Blood samples were allowed to clot by leaving undisturbed at room temperature for 1 h, and serum was separated by centrifuging at 2000×g for 10 min at 4 °C. The serum was carefully removed and stored on ice until further processing. Serum proteins were precipitated by incubating an aliquot of serum with a mixture of acetonitrile:acetone (80:20) containing 0.1 mg/mL quercetin (internal standard) at 4 °C overnight. The supernatant was separated by centrifuging at 14,000×g for 10 min at 4 °C. Excess solvent was evaporated using nitrogen flush and mixed with methanol and filtered. PZ-DHA-metabolites in the filtrate were identified using a UPLC-ESI–MS/MS (Waters Limited, Mississauga, ON, Canada). Organs were homogenized in PBS (1:5 w/v). Supernatants were collected by centrifugation at 14,000 × g for 15 min at 4 °C. Proteins were precipitated by incubating in acetonitrile:acetone (80:20) containing 0.1 mg/mL quercetin (internal standard) at 4 °C overnight. Supernatants were treated as explained above, and PZ-DHA and/or PZ-DHA-metabolites were identified.
A calibration curve (R^2 = 0.99) generated using a standard series of PZ-DHA concentrations prepared in mouse serum (spiked with 0.1 mg/mL quercetin) was used for the quantification of PZ-DHA. The average PZ-DHA concentrations were plotted against time. The maximum serum concentration of serum (Cmax) and the time to reach Cmax (Tmax) were read directly from the graph. The linear trapezoidal method was used to calculate the area under the curve (AUC) from t = 0 to infinity, the biological half-life of PZ-DHA (t1/2), determined using the plotted curve in Graphpad Prism software (version 5; La Jolla, CA, USA). The clearance following IP administration was determined by non-compartmental analysis using the relationship CL/F = D/AUC. The elimination rate constant λ was determined by linear regression of the elimination phase of the semi-log transformed concentration versus time curve. The t1/2 was calculated using the formula 0.693/λ and the volume of distribution Vd/F from the formula Vd/F = CL/(F*λ).

[4] = tested on: mammary carcinoma cells, including MDA-MB-231 and 4T1; parameters: method as in PMID 31473253; conditions: 20 µM for PZ-DHA; cited from earlier work
[5] = In vitro phase II metabolism with mouse hepatic microsomes and SAM, UDPGA or PAPS; assay type: in vitro ADME; conditions: PZ-DHA 1.1 µM, SAM, 1 h, 37 °C
Procedure: Figure 3 PZ-DHA undergoes phase II metabolism in the presence of freshly prepared mouse liver microsomes. PZ-DHA (1.1 µM) was incubated with S-(5′-adenosyl)-L-methionine chloride dihydrochloride (1 mM), […] (2 mM) and alamethicin (25 µg/mL) and adenosine 3′-phosphate 5′-phosphosulfate lithium salt, hydrate (0.5 mM) in the presence of mouse liver microsomal enzymes (3 mg/mL) at 37 °C for 1 h. (A) Tri-methylated-PZ-DHA (4,4′,6′-tri-O-methyl-phloridzin docosahexaenoate) (MW = 788.88 g/mol), (B) phloridzin docosahexaenoate-4-O-glucuronide (MW = 923.02 g/mol) and phloridzin docosahexaenoate-4′-O-glucuronide (MW = 923.02 g/mol), and (C) sulfated-PZ-DHA (phloridzin docosahexaenoate-4,4′-di-O-sulphide) metabolite (MW = 906.20 g/mol) were identified.
Mouse hepatic microsomes were freshly isolated from the livers of male C57BL/6 mice, and the entire extraction procedure was carried out at 4 °C. Mouse livers were minced and homogenized in KCl/sucrose phosphate buffer (0.154 M KCl, 0.25 M sucrose in 50 mM potassium phosphate buffer (K2HPO4/KH2PO4) (PPB), pH 7.5). […] The protein concentration was determined using a Bradford assay (R^2 = 1.00), and microsomes were stored at − 80 °C.
Potential in vitro phase I and phase II metabolites of PZ-DHA were detected by incubating PZ-DHA in the presence of freshly-prepared mouse hepatic microsome preparations. Phase I metabolites were determined by incubating 1.1 µM PZ-DHA with 100 mM NADPH in the presence of mouse hepatic microsomes for 1 h at 37 °C. Phase II methylation, glucuronidation, and sulphation of PZ-DHA was determined by incubating 1.1 µM PZ-DHA with 1 mM SAM, 2 mM UDPGA, and 0.5 mM PAPS, respectively, in the presence of freshly prepared mouse hepatic microsome for 1 h at 37 °C (Supplementary information Tables S1–S4). […]
PZ-DHA and/or PZ-DHA metabolites in malignant/non-malignant epithelial cell lysates, in vitro microsome enzyme reaction mixtures, and mouse serum aliquots were determined using UPLC-ESI–MS/MS instrument (Waters Limited, Mississauga, ON, Canada). […]

[6] = Tissue distribution of PZ-DHA and metabolites after intraperitoneal injection; assay type: in vivo, Balb/c female mice; conditions: PZ-DHA 100 mg/kg intraperitoneal
Procedure: Figure 5 PZ-DHA and metabolites were detected in various organs of PZ-DHA-treated Balb/c female mice. PZ-DHA (100 mg/kg) was administered by intraperitoneal injection to Balb/c female mice and liver, lungs, kidneys, spleen and brain were harvested. Organs were homogenized and PZ-DHA in (A) liver, kidneys, lungs, spleen, and brain was identified and quantified using a calibration curve. The abundance of (B) 4,4′,6′-tri-O-methyl-phloridzin docosahexaenoate in liver, kidneys, lungs, and serum) and (C) phloridzin docosahexaenoate-4,4′-di-O-sulphide in the liver was determined in PZ-DHA equivalence.
as §2

O=C(CCc1ccc(O)c(O)c1)c1c(O)cc(O)cc1O[C@@H]1O[C@H](CO)[C@@H](O)[C@H](O)[C@H]1O [3-hydroxy-phloridzin]
phase I metabolite of PZ-DHA identified [1]: identified

tri-epoxy-phloridzin docosahexaenoate
phase I metabolite of PZ-DHA identified [1]: identified

O=C(CCc1ccc(O)cc1)c1c(O)cc(O)cc1O[C@@H]1O[C@H](CO)[C@@H](O)[C@H](O)[C@H]1O [PZ, phloridzin]
cellular uptake (as a % of the dose), in words [2]: very low | phase I metabolite of PZ-DHA identified [1]: identified | phase I metabolite in serum after PZ-DHA [3]: detection | migration and invasion of mammary carcinoma cells [4]: to a lesser extent than PZ-DHA

CC/C=C\C/C=C\C/C=C\C/C=C\C/C=C\C/C=C\CCC(=O)OC[C@H]1O[C@@H](Oc2cc(O)cc(O)c2C(=O)CCc2ccc(O[C@@H]3O[C@H](C(=O)O)[C@@H](O)[C@H](O)[C@H]3O)cc2)[C@H](O)[C@@H](O)[C@@H]1O [phloridzin docosahexaenoate-4-O-glucuronide]
phase II metabolite of PZ-DHA identified [5]: identified

CC/C=C\C/C=C\C/C=C\C/C=C\C/C=C\C/C=C\CCC(=O)OC[C@H]1O[C@@H](Oc2cc(O[C@@H]3O[C@H](C(=O)O)[C@@H](O)[C@H](O)[C@H]3O)cc(O)c2C(=O)CCc2ccc(O)cc2)[C@H](O)[C@@H](O)[C@@H]1O [phloridzin docosahexaenoate-4′-O-glucuronide]
phase II metabolite of PZ-DHA identified [5]: identified

CC/C=C\C/C=C\C/C=C\C/C=C\C/C=C\C/C=C\CCC(=O)OC[C@H]1O[C@@H](Oc2cc(OC)cc(OC)c2C(=O)CCc2ccc(OC)cc2)[C@H](O)[C@@H](O)[C@@H]1O [4,4′,6′-tri-O-methyl-phloridzin docosahexaenoate]
phase II metabolite of PZ-DHA identified [5]: identified | time at which the metabolite reached the maximum concentration, post-injection ([6]; all organs except for serum): < 1 h | metabolite detection in tissue after PZ-DHA ([6]; liver, lungs, and kidneys): detected | metabolite concentration in serum throughout the experimental period ([6]; serum): remained constant | metabolite detection in tissue after PZ-DHA ([6]; spleen or brain): not found

CC/C=C\C/C=C\C/C=C\C/C=C\C/C=C\C/C=C\CCC(=O)OC[C@H]1O[C@@H](Oc2cc(O)cc(O)c2C(=O)CCc2ccc(O)c(O)c2)[C@H](O)[C@@H](O)[C@@H]1O [3-hydroxy-phloridzin docosahexaenoate]
phase I metabolite of PZ-DHA identified [1]: identified

CC/C=C\C/C=C\C/C=C\C/C=C\C/C=C\C/C=C\CCC(=O)O [DHA, docosahexaenoic acid, reference compound]
cellular uptake (as a % of the dose), in words [2]: very low | phase I metabolite of PZ-DHA identified [1]: identified | phase I metabolite in serum after PZ-DHA [3]: detection | migration and invasion of mammary carcinoma cells [4]: to a lesser extent than PZ-DHA

— PMC7721897, “Metabolism and pharmacokinetics of a novel polyphenol fatty acid ester phloridzin docosahexaenoate in Balb/c female mice” (Scientific Reports, 2020)
